Source: US20230135729A1, “COMPOUND WITH ANTI-SPORE ACTIVITY AND PHARMACEUTICAL COMPOSITION THEREOF” (priority 2020, published 2023)
Converted amounts (≈) assume the structure as drawn.

Legend:
Type in all cases: cell-based
[1] = system: spores of ATCC BBA1870 strain; test: Inhibition of germination of C. difficile spores (MIC), strain ATCC BBA1870; settings: Clostridioides difficile, ATCCBBA1870STRAIN, 1 h; strain 1870; sodium taurocholate as germinant, BHIS medium, 37° C., OD580 for 60 min; read-out: MIC (minimum concentration that completely inhibits spore germination)
How it was run: (§1)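 Spores heat-activated for 30 min at 65° C and washed, then preincubated with compound (10 mM DMSO stock) in BHIS at 37° C. Germination was triggered with sodium taurocholate, and OD580 was read each minute for 60 min. Inhibition = 100% − germination rate, from final vs initial OD relative to germinant-only controls.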

[2] = system: spores of ATCC 630 strain; test: Inhibition of germination of C. difficile spores (MIC), strain ATCC 630; settings: Clostridioides difficile, ATCC630, 1 h; strain 630; sodium taurocholate as germinant, BHIS medium, 37° C., OD580 for 60 min; read-out: MIC (minimum concentration that completely inhibits spore germination)
How it was run: as §1

[3] = system: spores of ATCC 43255 strain; test: Inhibition of germination of C. difficile spores (MIC), strain ATCC 43255; settings: Clostridioides difficile, ATCC43255, 1 h; strain 43255; sodium taurocholate as germinant, BHIS medium, 37° C., OD580 for 60 min; read-out: MIC (minimum concentration that completely inhibits spore germination)
How it was run: as §1

[4] = system: various C. difficile spores; test: Inhibition of germination of C. difficile spores, summary over the strains; settings: Clostridioides difficile; Table 1, all strains
Experimental: According to a method disclosed in “The Journal of Infectious Diseases. 2013; 207: 1498-504”, spores of ATCC BBA1870, ATCC 43255 and ATCC 630 strains were obtained by culture and purification, and stored at 4° C.
Spore preparation: the C. difficile spores stored at 4° C. were heat-activated for 30 min at 65° C., centrifuged at 9,400 g for 2 min, and washed three times to remove any self-germinating spores.
Control drug: three cholic acid derivatives, a compound CamSA, a compound 20β (prepared by the method of “Journal of Medicinal Chemistry. 2017, 60 (8): 3451-3471”), and a compound 12a (prepared by the method of “Journal of Medicinal Chemistry. 2018, 61, 6759-6778”), were used as control drugs.
Compound preparation: the compound of the present disclosure, and the positive control drugs CamSA, 20β, and 12a were dissolved in DMSO, to prepare a stock solution with a concentration of 10 mM (prepared for immediate use).
The detection was conducted in a 96-well cell culture plate at a constant temperature of 37° C.; a final volume of each well of the 96-well plate was […] and a buffer was the BHIS medium; 150 μl of spores and drugs were added to the well in advance, and 50 μl of 4 mg/ml sodium taurocholate was added; OD580 was detected every 1 min immediately using a microplate reader, for continuously 60 min. A germination agent control group and a non-germination group were set up; after the detection, a final OD value of each well was compared with an initial value, and compared with the germination agent group to calculate a germination rate and an inhibition rate. A formula for the germination rate was:
Inhibition rate=100%−germination rate.

SMILES | MIC [1] | MIC [2] | MIC [3] | MIC [4]
CCC(NC(=O)C[C@@H](C)[C@H]1CC[C@H]2[C@@H]3C(=O)C[C@@H]4CC(=O)CC[C@]4(C)[C@H]3CC[C@]12C)c1cccs1 (stereo partly shown) [Compound I-35] | 0.5 µM (≈ 0.249 µg/mL) | 0.5 µM (≈ 0.249 µg/mL) | 0.5 µM (≈ 0.249 µg/mL) | ≤ 1 µM
CCCC(NC(=O)C[C@@H](C)[C@H]1CC[C@H]2[C@@H]3C(=O)C[C@@H]4CC(=O)CC[C@]4(C)[C@H]3CC[C@]12C)c1cccs1 (stereo partly shown) [Compound I-41] | 0.5 µM (≈ 0.256 µg/mL) | 0.5 µM (≈ 0.256 µg/mL) | 0.5 µM (≈ 0.256 µg/mL) | ≤ 1 µM
CC(NC(=O)C[C@@H](C)[C@H]1CC[C@H]2[C@@H]3C(=O)C[C@@H]4CC(=O)CC[C@]4(C)[C@H]3CC[C@]12C)c1ccc(Cl)s1 (stereo partly shown) [Compound I-32] | 0.5 µM (≈ 0.259 µg/mL) | 0.5 µM (≈ 0.259 µg/mL) | 0.5 µM (≈ 0.259 µg/mL) | ≤ 1 µM
CC[C@@H](NC(=O)C[C@@H](C)[C@H]1CC[C@H]2[C@@H]3C(=O)C[C@@H]4CC(=O)CC[C@]4(C)[C@H]3CC[C@]12C)c1cccs1 [Compound I-37] | 0.25 µM (≈ 0.124 µg/mL) | 0.25 µM (≈ 0.124 µg/mL) | 0.25 µM (≈ 0.124 µg/mL) | ≤ 1 µM
C[C@H](CC(=O)N[C@@H](c1cccs1)C1CC1)[C@H]1CC[C@H]2[C@@H]3C(=O)C[C@@H]4CC(=O)CC[C@]4(C)[C@H]3CC[C@]12C [Compound I-50] | 0.25 µM (≈ 0.127 µg/mL) | 0.25 µM (≈ 0.127 µg/mL) | 0.25 µM (≈ 0.127 µg/mL) | ≤ 1 µM
C[C@H](CC(=O)NC(c1cccs1)C1CC1)[C@H]1CC[C@H]2[C@@H]3C(=O)C[C@@H]4CC(=O)CC[C@]4(C)[C@H]3CC[C@]12C (stereo partly shown) [Compound I-48] | 0.5 µM (≈ 0.255 µg/mL) | 0.5 µM (≈ 0.255 µg/mL) | 0.5 µM (≈ 0.255 µg/mL) | ≤ 1 µM
C[C@H](CC(=O)NC(c1ccc(Cl)s1)C1CC1)[C@H]1CC[C@H]2[C@@H]3C(=O)C[C@@H]4CC(=O)CC[C@]4(C)[C@H]3CC[C@]12C (stereo partly shown) [Compound I-51] | 0.5 µM (≈ 0.272 µg/mL) | 0.5 µM (≈ 0.272 µg/mL) | 0.5 µM (≈ 0.272 µg/mL) | ≤ 1 µM
